Experimental data reported in ChEMBL document CHEMBL1150951, “New mycalolides from the marine sponge Mycale magellanica and their interconversion” (J Nat Prod, 1998).
Converted amounts (≈) assume the structure as drawn.

The compounds below were run on L1210 (assay: Cytotoxicity against mouse L1210 cells).
Type: functional, cell-based

`CO[C@H]1C/C=C/c2nc(co2)-c2nc(co2)-c2nc(co2)[C@@H](OC)[C@@H](C)C(=O)/C=C/C[C@H](O)CC(=O)O[C@@H](C[C@H](OC)[C@@H](C)CCC(O)[C@@H](C)[C@H](OC(C)=O)[C@H](C)/C=C/N(C)C=O)[C@@H]1C` (stereo partly drawn) [30-HYDROXYMYCALOLIDE A] and `CO[C@H]1C/C=C/c2nc(co2)-c2nc(co2)-c2nc(co2)[C@@H](OC)[C@@H](C)C(=O)/C=C/C[C@H](O)CC(=O)O[C@@H](C[C@H](OC)[C@@H](C)CCC(=O)[C@@H](C)[C@H](O)[C@H](C)/C=C/N(C)C=O)[C@@H]1C` [32-HYDROXYMYCALOLIDE A] are within 1.5-fold of each other in IC50: 0.019 µg/mL (≈ 0.0209 µM) for the first, 0.013 µg/mL (≈ 0.015 µM) for the second.

Work on `COC(CO)C(=O)O[C@H](CC[C@H](C)[C@H](C[C@@H]1OC(=O)C[C@@H](O)C/C=C/C(=O)[C@H](C)[C@H](OC)c2coc(n2)-c2coc(n2)-c2coc(n2)/C=C/C[C@H](OC)[C@H]1C)OC)[C@H](C)[C@H](OC(C)=O)[C@H](C)/C=C/N(C)C=O` (stereo partly drawn) [38-HYDROXYMYCALOLIDE B] yielded an IC50 of 0.015 µg/mL (≈ 0.0148 µM).
